Laboratory results reported in paper doi:10.1101/2024.08.13.607848, “Bibacillin 1: A two-component lantibiotic from Bacillus thuringiensis” (bioRxiv, 2024).

Legend:
[1] = In vitro pore formation assay, pyranine-encapsulated liposomes; conditions: total peptide concentration 5 μM; DOPC liposomes containing or lacking 0.1 mol% lipid II; mixture 1:1
Method: To investigate the lipid II-dependence of the pore formation activity of bibacillin 1, pyranine-encapsulated liposomes were prepared containing or lacking lipid II and pore formation was monitored via pH-dependent pyranine fluorescence.[70]
This assay was conducted as described elsewhere.[70]

[2] = system: Micrococcus luteus ATCC 4698; test: Agar diffusion assay using bacteria; assay type: cell-based
Method: Fig. 4. […] Cytolysin was used as a positive control.
Overnight cultures of bacteria were prepared according to Table S1. The OD600 of each culture was determined and adjusted to a value of 1 using the appropriate growth media. Molten growth media containing 0.7% agar was cooled to 50 °C and inoculated with 50 μL of adjusted overnight culture for every 5 mL of molten growth media. The inoculated molten growth media was immediately poured onto a pre-warmed agar (2%) plate prepared using the same media. The plate was allowed to set for 30 min at room temperature before adding 3 μL of peptide stock diluted in PBS to 100 μM. The deposited peptide solutions were allowed to stand on the agar plate for 30 min before incubation for 16–36 h at the optimum growth temperature until the desired cell density was achieved.

[3] = SDS-PAGE analysis of oligomerization; assay type: physicochemical; conditions: in the presence of SDS
Source text: Using agar plates seeded with E. faecalis pXL110 and the colorimetric LacZ substrate X-gal, LacZ expression was visualized. Consistent with previous reports,[43] […] Comparing the structures of CylLS” and Bib1β (Fig. 1A and 2B), we speculated that the presence of Ser16 in Bib1β rather than the hydrophobic residues present in CylLS” in this region might interfere with CylR1 binding possibly due to hydrophobic mismatching. […] To determine whether bibacillin 1 could quorum sense through an aggregation mechanism, the aggregation propensity of bibacillin 1 was analyzed using SDS-PAGE and dynamic light scattering (DLS). […] Since SDS can influence aggregation, the aggregation of bibacillin 1 was further investigated under SDS-free conditions using DLS (Fig. 6B). Bib1α exists in solution as aggregates that are 159 nm in diameter on average (PDI = 0.224) and Bib1β forms aggregates that are 291 nm in diameter on average (PDI = 0.384). […] Confirmation of this hypothesis will require in vitro studies with Bib1R1/R2.

rabbit erythrocytes = assay type: cell-based; conditions: total peptide concentration 2 µM; 1 h at 37 °C; hemoglobin release, absorbance at 415 nm; mixture 1:1
Method: Solution phase hemolysis assays were conducted as described previously.[35]
Fig. S2. […] A) Hemoglobin release […]
erythrocytes were treated with 0.03% v/v triton X-100. Negative control contained only buffer. A total peptide concentration of 2 µM was used in each case. B) Extent of hemolysis after treating freshly washed rabbit erythrocytes with 1:1 of CylLS”:CylLL” at 37 ̊C for 1 h. Data was fit to a […]
(1 picture or pasted object on this page, not shown here)

SMILES | Pore formation activity in liposomes, pyranine fluorescence [1] | Growth inhibition in agar diffusion assay [2] | Oligomeric state by SDS-PAGE [3] | Hemolysis in solution phase assay (rabbit erythrocytes)
C=C(NC(=O)[C@H](C)NC(=O)[C@@H]1CS[C@H](C)[C@H](N)C(=O)NC(=C)C(=O)N2CCC[C@H]2C(=O)N[C@@H](C)C(=O)N1)C(=O)N[C@@H](C)C(=O)N[C@@H](CCSC)C(=O)N[C@@H](CC(C)C)C(=O)N[C@@H](Cc1ccc(O)cc1)C(=O)N[C@@H](CC(C)C)C(=O)N[C@@H](CCC(N)=O)C(=O)NCC(=O)N[C@H](C(=O)NC(=CC)C(=O)N[C@H](C(=O)NC(=C)C(=O)N[C@@H](CC(C)C)C(=O)NCC(=O)N[C@@H](CC(C)C)C(=O)N[C@@H]1CSC[C@@H](C(=O)O)NC(=O)[C@H](Cc2c[nH]cn2)NC(=O)[C@H](CCSC)NC(=O)[C@H](CCCNC(=N)N)NC1=O)C(C)C)C(C)C [Bib1α] | pore formation activity that was somewhat enhanced by the addition of lipid II | weak individual activity | oligomeric in the presence of SDS | did not induce hemolysis
CC=C1NC(=O)[C@@H](N)[C@@H](C)SC[C@@H](C(=O)N[C@@H](C)C(=O)N[C@H](C(=O)NCC(=O)NCC(=O)NCC(=O)N[C@@H](CC(C)C)C(=O)N[C@@H](C)C(=O)N[C@@H](CC(C)C)C(=O)NCC(=O)N[C@@H](Cc2ccccc2)C(=O)N[C@@H](CO)C(=O)N[C@H](C(=O)N[C@@H]2CSC[C@@H](C(=O)O)NC(=O)[C@H](Cc3ccc(O)cc3)NC(=O)[C@H]([C@@H](C)CC)NC(=O)[C@H](CCCCN)NC2=O)[C@@H](C)CC)[C@@H](C)CC)NC(=O)[C@H](C(C)C)NC(=O)[C@@H]2CCCN2C1=O [Bib1β] | – | weak individual activity | oligomeric in the presence of SDS | did not induce hemolysis
